According to patent US6716987B1, “Derivatives of benzofuran or benzodioxazole compounds” (Kyowa Hakko Kogyo Co., Ltd., priority 1995, dated 2004):
Where a name gives a salt, the structure may show the parent alone.

System: not given
Assay: not given
Conditions: not given

Question: Which melting point does the source give for `COc1ccc(C(=O)Cc2c(Cl)cncc2Cl)c2c1OCO2` here?
Answer: 170 to 171 °C

Question: For `COC(=O)c1cccc(-c2ccc(OC)c3c2CC(C)(C)O3)c1`, which melting point is on record?
Answer: 89 to 91 °C

Question: With `COc1ccc(CNc2ccncc2)c2c1OCC2C` (racemic) as the molecule, how does the melting point read?
Answer: 138 to 145 °C

Question: Which melting point does the source give for `COc1ccc(C(=O)Nc2ccncc2)c2c1OC(C)(C)O2` here?
Answer: 180 to 181 °C

Question: Which melting point does the source give for `COc1ccc(C(=O)Nc2c(Cl)cncc2Cl)c2c1OCCCCO2` here?
Answer: 115 to 117 °C

Question: Which melting point does the source give for `COc1ccc(C(=O)Cc2ccncc2)c2c1CC1(CCCC1)O2` here?
Answer: 101 to 103 °C

Question: For `COc1ccc(C(=O)Nc2c(Cl)cncc2Cl)c2c1OCCCO2`, which melting point is on record?
Answer: 149 to 150 °C

Question: Which melting point does the source give for `CCOC(=O)Cc1coc2c(OC)ccc(C(=O)Cc3c(Cl)cncc3Cl)c12` here?
Answer: 105 to 115 °C

Question: Which melting point does the source give for `COc1ccc(-c2cccc(C(=O)O)c2)c2c1OC(C)(C)C2` here?
Answer: 220 to 225 °C

Question: For `COc1ccc(C(=O)Cc2c(Cl)cncc2Cl)c2c1OCCO2`, which melting point is on record?
Answer: 158 to 160 °C

Question: With `COc1ccc(-c2ccc(C(=O)O)cc2)c2c1OCCO2` as the molecule, how does the melting point read?
Answer: 281 to 284 °C

Question: With `COc1ccc(CCc2ccncc2)c2c1OCCCO2.Cl` as the molecule, how does the melting point read?
Answer: 185 to 187 °C

Question: With `COc1ccc(C(C)=Cc2ccncc2)c2c1OC1(CCCC1)C2` (as salt: salt) [Compound 75, 7-Methoxy-4-[1-methyl-2-(4-pyridyl)ethenyl]-spiro[2,3-dihydrobenzofuran-2,1′-cyclopentane]] as the molecule, how does the melting point read?
Answer: 85 to 87 °C

Question: Which melting point does the source give for `COc1ccc(C(=O)Cc2c(Cl)cncc2Cl)c2cc(C#N)oc12` here?
Answer: 197 to 199 °C

Question: Which melting point does the source give for `COc1ccc(C(=O)Nc2c(C)cccc2C)c2c(CC(=O)OCc3ccccc3)coc12` here?
Answer: 202 to 204 °C

Question: For `COc1ccc(C(=O)Cc2c(Cl)cncc2Cl)c2c1OC(C)(C)O2`, which melting point is on record?
Answer: 133 to 134 °C

Question: Which melting point does the source give for `CCOC(=O)c1cccc(NC(=O)c2ccc(OC)c3c2OCCO3)c1` here?
Answer: 174 to 175 °C

Question: Which melting point does the source give for `COC1(OC)CC=C(C(Cc2ccncc2)c2ccccc2)C2=C1OC(C)(C)C2` (racemic) [Compound 47, (±) 7-Methoxy-2,2-dimethyl-7-methoxy-4-[1-phenyl-2-(4-pyridyl)ethyl]-2,3-dihydrobenzofuran] here?
Answer: 78 to 81 °C

Question: Which melting point does the source give for `COc1ccc(C(=O)Cc2ccncc2)c2c1OCCO2.Cl` here?
Answer: 226 to 228 °C

Question: For `COc1ccc(/C=C/C(=O)Nc2ccncc2)c2c1OC1(CCCC1)C2`, which melting point is on record?
Answer: 124 to 128 °C

Question: For `COc1ccc(C(=O)Cc2c(Cl)cncc2Cl)c2cc(C(=O)c3ccccc3)oc12`, which melting point is on record?
Answer: 213 to 215 °C

Question: For `COc1ccc(C(=O)Nc2ccncc2)c2c1CC1(CCCC1)O2.CS(=O)(=O)O`, which melting point is on record?
Answer: 164 °C (dec.)

Question: Which melting point does the source give for `COc1ccc(C=C(C#N)C#N)c2c1OC(C)(C)C2` here?
Answer: 198 to 200 °C

Question: Which melting point does the source give for `COc1ccc(C(=O)Nc2c(Cl)cncc2Cl)c2c1OCC2` here?
Answer: 196 to 197 °C

Question: For `COc1ccc(C(=O)Nc2c(Cl)cccc2Cl)c2c1OCCO2`, which melting point is on record?
Answer: 176 to 177 °C

Question: With `COc1ccc(C(=O)Nc2c(Cl)cncc2Cl)c2c1CC1(CCCC1)O2` as the molecule, how does the melting point read?
Answer: 156 to 158 °C

Question: With `COc1ccc(C(=O)Cc2c(Cl)cncc2Cl)c2c1OC(c1ccccc1)(c1ccccc1)O2` as the molecule, how does the melting point read?
Answer: 156 to 157 °C

Question: For `CCOC(=O)Cc1coc2c(OC)ccc(C(=O)Cc3ccncc3)c12`, which melting point is on record?
Answer: 111 to 117 °C

Question: For `COc1ccc(C(=O)Nc2cccc(C(=O)O)c2)c2cc(C(=O)c3ccccc3)oc12`, which melting point is on record?
Answer: 262 to 263 °C

Question: With `COC(=O)c1ccc(-c2ccc(OC)c3c2CC(C)(C)O3)cc1` as the molecule, how does the melting point read?
Answer: 116 to 122 °C

Question: With `COc1ccc(C(=O)Nc2c(Cl)cncc2Cl)c2cc(Cc3ccccc3)oc12` as the molecule, how does the melting point read?
Answer: 141 to 142 °C

Question: With `COc1ccc(C(=O)Cc2ccncc2)c2c1OCCCO2.Cl` as the molecule, how does the melting point read?
Answer: 205 to 208 °C

Question: With `COc1ccc(C(=O)Nc2c(Cl)cncc2Cl)c2c1OCCO2` as the molecule, how does the melting point read?
Answer: 143 to 145 °C

Question: Which melting point does the source give for `COc1ccc(-c2ccc(C(=O)O)cc2)c2c1OC(C)(C)C2` here?
Answer: 249 to 252 °C

Question: Which melting point does the source give for `CCOC(=O)c1ccc(-c2ccc(OC)c3c2OCCO3)cc1` here?
Answer: 141 to 141.5 °C

Question: With `COc1ccc(C(=O)Cc2c(Cl)cccc2Cl)c2c1OCCO2` as the molecule, how does the melting point read?
Answer: 154 to 155 °C

Question: For `COc1ccc(C(=O)Cc2c(Cl)cncc2Cl)c2c(CC(=O)OCc3ccccc3)coc12`, which melting point is on record?
Answer: 132 to 133 °C

Question: For `CCN1CCN(C(=O)c2cc3c(C(=O)Cc4c(Cl)cncc4Cl)ccc(OC)c3o2)CC1.O=C(O)/C=C/C(=O)O`, which melting point is on record?
Answer: 196 to 197 °C

Question: With `COc1ccc(C(=O)Cc2c(Cl)cccc2Cl)c2cc(C(=O)N(C)c3cccc(F)c3)oc12` as the molecule, how does the melting point read?
Answer: 198 to 199 °C

Question: For `COc1ccc(C(=O)Cc2c(Cl)cncc2Cl)c2c(CC(=O)O)coc12`, which melting point is on record?
Answer: 192 to 194 °C

Question: With `CCOC(=O)Cc1coc2c(OC)ccc(C(=O)Cc3c(Cl)cccc3Cl)c12` as the molecule, how does the melting point read?
Answer: 153 to 154 °C

Question: Which melting point does the source give for `COc1ccc(C(=O)Cc2c(Cl)cncc2Cl)c2c1OCC2CC(=O)OCc1ccccc1` (centres unmarked) here?
Answer: 120 to 122 °C

Question: Which melting point does the source give for `COc1ccc(/C=C/c2c(Cl)cncc2Cl)c2c1OCC2C` (racemic) here?
Answer: 117 to 118 °C

Question: With `COc1ccc(C(C)=Cc2ccncc2)c2c1OC(C)(C)C2` as the molecule, how does the melting point read?
Answer: 85 to 87 °C

Question: With `COc1ccc(C(=O)Nc2c(F)cccc2F)c2c(CC(=O)OCc3ccccc3)coc12` as the molecule, how does the melting point read?
Answer: 223 to 224 °C

Question: With `COc1ccc(/C=C/c2c(Cl)cncc2Cl)c2cc(-c3ccncc3)oc12` as the molecule, how does the melting point read?
Answer: 204 to 206 °C

Question: Which melting point does the source give for `COc1ccc(C(=O)Cc2ccncc2)c2c1OC(C)(C)C2` here?
Answer: 107 to 111 °C

Question: With `COc1ccc(/C=C/c2c(Cl)cncc2Cl)c2c1OC(C)(C)C2` as the molecule, how does the melting point read?
Answer: 114 to 118 °C

Question: Which melting point does the source give for `COc1ccc(C(=O)Cc2c(Cl)cncc2Cl)c2c1OC(C)(C)C2` here?
Answer: 127 to 131 °C

Question: With `COc1ccc(C(=O)Nc2cccc(C(=O)O)c2)c2c1OCCO2` as the molecule, how does the melting point read?
Answer: 283 to 284 °C

System: cAMP-specific phosphodiesterase (PDE IV)
Assay: Inhibition of the PDE IV enzyme derived from a dog trachea
Type: biochemical
Conditions: test compound 10^−6 M; PDE IV from dog tracheal smooth muscle; substrate cAMP 1 μM
Description: cAMP-specific phosphodiesterase (PDE IV) was purified from a dog tracheal smooth muscle according to the method of Torphy et al. [Molecular Pharmacol., 37, 206-214 (1990)]. The PDE activity was measured by the following two steps according to the method of Kincaid and Manganiello et al. [Method in Enzymology (J. D. Corbin and R. A. Jonson, Eds.), 199, 457-470 (1988)]. Using [^3]cAMP (at a final concentration of 1 μM) as a substrate, the reaction was carried out in a standard mixture containing N,N-bis(2-hydroxyethyl)-2-aminoethanesulfonic acid (50 mM, pH=7.2), MgCl2 (1 mM), and soybean trypsin inhibitor (0.1 mg/ml). The reaction was initiated by adding the enzyme, followed by incubation at 30° C. for 10 to 30 minutes. After stopping the reaction with hydrochloric acid, the generated […] was completely converted to adenosine by 5′-nucleotidase.
The resultant was subjected to chromatography on DEAE-Sephadex A-25, and radio activity of the eluted [^3H] adenosine was counted using a scintillation counter. Each of the test drugs was dissolved in DMSO (final concentration 1.7%) and then added to the mixture.

Question: Which “Enzyme Inhibitory Activity (%, 10^−6 M)” value does the source give for `COc1ccc(C=Cc2ccncc2)c2c1OC1(CCCCC1)CC2.Cl` [Compound 126, 8-Methoxy-5-[2-(4-pyridyl)ethenyl]-spiro[3,4-dihydrobenzopyran-2,1′-cyclohexane].hydrochloride] here?
Answer: 58%

Question: With `COc1ccc(/C=C/c2ccncc2)c2cc(-c3ccncc3)oc12.Cl.Cl` [Compound 83, (E)-7-Methoxy-2-(4-pyridyl)-4-[2-(4-pyridyl)ethenyl]-benzofuran.2 hydrochloride] as the molecule, how does the “Enzyme Inhibitory Activity (%, 10^−6 M)” value read?
Answer: 89%

Question: For `COc1ccc(C(=O)Cc2ccccc2)c2cc(C(=O)c3ccccc3)oc12` [Compound 107, 2-Benzoyl-7-methoxy-4-(1-oxo-2-phenylethyl)benzofuran], which “Enzyme Inhibitory Activity (%, 10^−6 M)” value is on record?
Answer: 63%

Question: With `COc1ccc(C(=O)Nc2c(Cl)cncc2Cl)c2ccoc12` [Compound 33, 4-[(3,5-Dichloro-4-pyridyl)aminocarbonyl]-7-methoxy-benzofuran] as the molecule, how does the “Enzyme Inhibitory Activity (%, 10^−6 M)” value read?
Answer: 71%

Question: Which “Enzyme Inhibitory Activity (%, 10^−6 M)” value does the source give for `COc1ccc(C(=O)Nc2c(Cl)cncc2Cl)c2c1OCC2CC(=O)NCc1ccccn1` (racemic) [Compound 24, (±)-4-[(3,5-Dichloro-4-pyridyl)aminocarbonyl]-7-methoxy-3-[(2-pyridylmethyl)aminocarbonyl]methyl-2,3-dihydrobenzofuran] here?
Answer: 80%

Question: For `COc1ccc(C(=O)Cc2ccncc2)c2cc(CC(C)C)oc12.Cl` [Compound 110, 7-Methoxy-2-(2-methylpropyl)-4-[1-oxo-2-(4-pyridyl)-ethyl]benzofuran.hydrochloride], which “Enzyme Inhibitory Activity (%, 10^−6 M)” value is on record?
Answer: 80%
